In publication PMC10671360, “In Silico and In Vitro Study towards the Rational Design of 4,4′-Disarylbisthiazoles as a Selective α-Synucleinopathy Biomarker” (International Journal of Molecular Sciences, 2023):

What was measured:
[1] = biological target: T1, recombinant α-syn fibrils (Homo sapiens, UniProt P37840); experiment: Competition binding assay against [^3H]DCVJ, α-syn fibrils; conditions: for Selectivity Aβ/α-syn / Selectivity tau/α-syn: ratio of Ki, [^3H]DCVJ was used
T1 construct: made in house
Procedure: The incubation of purified recombinant α-synuclein monomer (10 mg/mL) obtained as described by Uzuegbunam was carried out in PBS (pH 7.4) at 37 °C. The solution was left shaking at 900 rpm in an Eppendorf Thermomixer for up to 84 h. Determination of the concentration of the formed fibrils (α-syn) was carried out following the centrifugation of the reaction vial at 12,000× g for 5 min. The pellet obtained was washed thrice with 20 mM of Tris-HCl, pH 7.4. The supernatants from the three centrifugation steps were combined, and the concentration of the monomer in the resulting supernatant was determined in a BCA assay (Thermo Fisher Scientific, Waltham, MA, USA) (with a BSA standard curve). Determination of the concentration of α-syn was carried out by subtracting the amount of α-synuclein monomer in the supernatant from the initial amount used for fibrillation.
(§1) The pellets of the fibrils obtained above (Section 4.2.1) were resuspended in 20 mM of Tris-HCl, pH 7.4 and diluted as needed for the binding assays.
(§2) A fixed concentration of [^3H]DCVJ (10 nM) and α-synuclein aggregates (125 nM), prepared as described above (Section 4.2.3), was used with different final concentrations of the DABTAs from 0.01 to 100 nM (see SI Figure S1). The experiment was carried out in quintuplicate for each concentration. The mixture was incubated for 2 h in a final volume of 200 μL per well after dilution with 20 mM of Tris-HCl, pH 7.4. The incubated mixtures were filtered through a Perkin Elmer GF/B glass filter via a TOMTEC cell harvester and immediately washed thrice with 1 mL of deionized water. The filters containing the bound ligands were dried and afterwards mixed with 3 mL of BetaPlate Scint solution (Perkin Elmer Life Sciences, Waltham, MA, USA) and left there for 2 h before counting in a Wallac 1450 MicroBeta TriLux Liquid Scintillation Counter (PerkinElmer Life Sciences, Waltham, MA, USA). For the determination of the inhibition constants, data were analyzed using GraphPad Prism software (version 7.0) to obtain IC50 values by fitting the data to the equation Y = bottom + (top − bottom)/(1 + 10(x − log IC50)). Ki values were calculated from IC50 values using the equation Ki = IC50/(1 + [radioligand]/Kd). […] Further protocol was carried out as for [^3H]DCVJ (see SI Figure S3).

Aβ1−42 fibrils [2] = biological target: T2, Aβ1−42 fibrils (Homo sapiens, UniProt P05067); experiment: Competition binding assay against [^3H]DCVJ, Aβ1−42 fibrils; conditions: [^3H]DCVJ was used (10 nM); Aβ1−42 aggregates 125 nM; read-out: Ki Aβ
T2 construct: 1 mg of β-amyloid1–42 peptide (Abcam, Cambridge, UK); purchased Abcam
Procedure: (§3) After the dissolution of 1 mg of β-amyloid1–42 peptide (Abcam, Cambridge, UK) in 50 μL of DMSO, 925 μL of Milli-Q® water was added to it, and the mixture was stirred. Finally, 25 μL of 1M Tris HCl, pH 7.4 was added to bring the final peptide concentration to 1 mg/mL. The mixture was then left to incubate at 37 °C for 30 h with shaking at 900 rpm. To separate the non-aggregated monomers from the formed fibrils, the reaction mixture was centrifuged at 12,000× g for 5 min, and the resulting pellet was washed three times with 500 μL of 20 mM Tris-HCl, pH 7.4. The supernatants from the three centrifugation steps were combined, and the concentration of the monomer in the resulting supernatant was determined in a BCA assay (Thermo Fisher Scientific, Waltham, MA, USA) (with a BSA standard curve). Determination of the concentration of fibrils formed was carried out by subtracting the amount of β-amyloid1−42 peptide monomer in the supernatant from the initial amount used for fibrillation.
as §1, §2
Fixed concentrations (125 nM) of Aβ1−42, tau aggregates, and [^3H]DCVJ (10 nM and 20 nM for the Aβ1−42 and tau competition experiments respectively) were used with different concentrations of cold versions of the tracers from 1 to 1000 nM (See SI Figure S2). The experiment was performed in quadruplicate for each concentration. […]

Aβ1−42 fibrils [3] = biological target: T2, Aβ1−42 fibrils; experiment: Competition binding assay against [^3H]PiB, Aβ1−42 fibrils; conditions: read-out: Ki Aβ
Procedure: as §3, §1, §2
Further procedures followed the same already described in Section 4.2.3.1 (See SI Figure S4).

[4] = Solubility in the incubation medium of the binding assays; format: physicochemical; conditions: incubation buffer of the binding assays
[5] = [^3H]DCVJ was used (10 nM), α-synuclein aggregates 125 nM

T2 sequence (P05067 672-713): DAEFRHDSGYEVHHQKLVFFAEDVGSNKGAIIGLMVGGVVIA

Row | Ki [1, 5] | Ki α-syn [1, 5] | Selectivity Aβ/α-syn [1] | Selectivity tau/α-syn [1] | Ki (Aβ1−42 fibrils [2]) | Ki (Aβ1−42 fibrils [3]) | solubility in the incubation medium [4] | SMILES
1 | 0.0005 µM | subnanomolar | 395.6 | 874.4 | 0.198 µM | 0.0967 µM | – | FCCOCCOc1cnc(-c2csc(-c3nc(-c4ccc5c(c4)OCO5)cs3)n2)nc1 [f6, 4-(Benzo[d][1,3]dioxol-5-yl)-4′-(5-(2-(2-fluoroethoxy)ethoxy)pyrimidin-2-yl)-2,2′-bithiazole]
2 | 0.00136 µM | – | 299.1 | >735.3 | 0.407 µM | 0.214 µM | decreased solubility | Fc1ncc(-c2csc(-c3nc(-c4cnc5c(c4)OCO5)cs3)n2)cn1 [d10]
3 | 0.00099 µM | – | 253.1 | 469.6 | 0.251 µM | 0.185 µM | – | FCCOc1cnc(-c2csc(-c3nc(-c4cnc5c(c4)OCO5)cs3)n2)nc1 [f4, 6-(4′-(5-(2-Fluoroethoxy)pyrimidin-2-yl)-[2,2′-bithiazol]-4-yl)-[1,3]dioxolo[4,5-b]pyridine]
4 | 0.00227 µM | – | 58.9 | 227.0 | 0.134 µM | 0.155 µM | – | FCCOc1cnc(-c2csc(-c3nc(-c4ccc5c(c4)OCO5)cs3)n2)nc1 [f5, 4-(Benzo[d][1,3]dioxol-5-yl)-4′-(5-(2-fluoroethoxy)pyrimidin-2-yl)-2,2′-bithiazole]
